The test system of the assay is mTOR. Description: mTOR activity by immunoblotting in HeLa cells (wildtype and TSC2-deleted). The note with it: 100 μM GPN 1 h. Format: cell-based. As for the experimental part:
(A) Analysis of mTOR activity in TSC2-deleted (TSC2−/−) and wildtype (TSC2WT) HeLa cells treated with 100 μM GPN in full medium (Full) or starved in EBSS for 1 h. mTOR activity was monitored by immunoblotting analysis of S6K1 (T389) phosphorylation (phosphorylated S6K (p-T389) relative to total S6K). Ctrl, control (untreated cells). (B) Co-immunoprecipitation analysis of changes in interactions between Ragulator and Rag GTPases following treatment with GPN. HEK293T cells stably expressing FLAG-metap2 (control) or FLAG-p14 were treated with 100 μM GPN in full medium for 1 h. Cell lysates were immunoprecipitated (IP) with anti-FLAG antibody and immunoblotted for endogenous RagA or RagC. […] (D) Analysis of mTOR activity in HEK293T cells or HEK293T cells stably expressing constitutively active RagB GTPase (RagBQ99L) treated with 100 μM GPN in full medium or starved in EBSS for 1 h. mTOR activity was monitored as in A. Data, means±SEM, (n=3), † not significant, **p<0.01, ANOVA. […] (F) Quantification by HC of overlaps between mTOR and LAMP2 (representative images shown in FIG. S2C) in HEK293T cells and HEK293T cells stably expressing constitutively active RagB GTPase (RagBQ99L) treated with 100 μM GPN in full medium for 1 h. Data, means±SEM, n≥3 independent experiments (500 primary objects counted per well; ≥5 wells/sample per each experiment); † p≥0.05, *p<0.05, ANOVA. […]
On the technique in general: Immunoblotting shows a protein as a band on a membrane.

Peptide text beside a SMILES is read from it.

Regarding `NCC(=O)N[C@@H](Cc1ccccc1)C(=O)Nc1ccc2ccccc2c1` [GPN, glycyl-L-phenylalanine 2-naphththylamide] (HELM PEPTIDE1{G.F.[c1ccc2cc(N[*:1])ccc2c1]}$$$$V2.0), under “HeLa cells, comparable to starvation”, the “mTOR activity in different cell lines” value is “inhibited mTOR activity”. Besides, the “mTOR activity in cells null for TSC2” value (TSC2-deleted HeLa cells) is on record as “inhibited mTOR”.

Source of the values: US20210069295A1, “GALECTINS CONTROL MTOR IN RESPONSE TO ENDOMEMBRANE DAMAGE AND PROVIDE A MECHANISM AND TARGET FOR THE TREATMENT OF AUTOPHAGY-RELATED DISEASES” (STC. UNM, priority 2017, published 2021).
